What was measured:
[1] = tested on: P. falciparum sporozoites; test: dose-dependent killing of P. falciparum sporozoites; format: cell-based; settings: Plasmodium falciparum
Description: Observed phenotype at lower concentration pinpoints towards an on-target effect of the compounds.

sporozoites [2] = test: gliding motility assay with compound washout (reversibility); format: cell-based
Experimental: FIG. 13 B is a series of photomicrographs that show representative images from slides of gliding sporozoites. DMSO treated sporozoites (a, upper left) with circular gliding pattern versus (b, upper right) pyrazole-urea compound treated sporozoites with a unique wavy line gliding pattern. Below are images of a compound 4 washout slide at 7.8 μM showing a similar wavy gliding patterns in addition to circular gliding (c, d).
A gliding motility assay with a compound washout step was also performed to measure the reversibility of the compound's effects. The sporozoites were incubated at for a total of 20 min with the compound before they were washed and re-suspend and allowed to glide.

[3] = biological target: TRAP interaction with aldolase (Plasmodium falciparum, UniProt Q7KQL9); test: TRAP-aldolase interaction via SPR; format: binding, P. falciparum; settings: as a function of compound concentration
Sequence of TRAP interaction with aldolase (Q7KQL9 whole entry): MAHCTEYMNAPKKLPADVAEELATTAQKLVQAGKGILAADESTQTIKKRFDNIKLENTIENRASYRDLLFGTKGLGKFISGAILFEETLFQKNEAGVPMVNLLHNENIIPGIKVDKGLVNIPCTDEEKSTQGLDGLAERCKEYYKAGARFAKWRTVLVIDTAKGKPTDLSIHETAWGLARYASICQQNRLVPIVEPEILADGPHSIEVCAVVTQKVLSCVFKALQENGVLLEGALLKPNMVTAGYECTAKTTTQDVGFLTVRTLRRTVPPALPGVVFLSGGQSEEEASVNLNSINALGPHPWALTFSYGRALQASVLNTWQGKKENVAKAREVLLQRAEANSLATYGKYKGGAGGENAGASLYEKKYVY
Sequence of TRAP interaction with aldolase (P16893 516-559, further chain): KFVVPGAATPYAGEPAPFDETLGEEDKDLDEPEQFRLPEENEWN
Experimental: FIG. 5A (Top) TRAP and FIG. 5B (Bottom) MTRAP show the interaction with aldolase in the presence of compounds 4 and 18 as a function of compound concentration as measured via SPR.
The dissociation constant for PfAldolase and PfTRAP, MTRAP and PvTRAP was measured by determining the binding response at various concentrations of aldolase passed over a chip with bound, biotinylated peptides (FIG. 3). Dissociation constants were in the mid-nanomolar range and matched with values previously reported in the literature (Boucher LE and Bosch J, J. Mol Recognit. 2013 Oct. 26(10): 496-500).
(FIG. 5A) TRAP and (FIG. 5B) MTRAP interaction with aldolase in the presence of compounds 4 and 18 is illustrated as a function of compound concentration as measured via SPR.

sporozoites [4] = test: sporozoite viability, LIVE/DEAD fixable violet assay; format: cell-based
Description: However, the viability decrease is not high enough to account for the levels of non-gliding sporozoites observed in the gliding assays.

P. berghei sporozoites = test: in vitro sporozoite gliding assay (CSP trails on anti-CSP coated slides); format: cell-based; settings: for effect on gliding motility (comparison among the five compounds): 250-31.25 μM; for share of gliding sporozoites that were low gliding (less than 10 trails) / sporozoites gliding: lowest concentration of compound (31.25 μM)
Experimental: Compounds selected from the initial hit list were tested using in vitro gliding assays. Five compounds were selected for dose dependent testing on gliding motility based on early crystallographic experiments and first round gliding assay experiments at high concentration.
P. berghei sporozoites were purified from mosquitoes, incubated with compound, and allowed to glide on anti-CSP coated slides. The CSP-trails deposited by the gliding parasites were detected with anti-CSP antibodies. Trails were quantified for each sporozoite. The ability of each sporozoite to glide was categorized as no gliding (0 trails), and low (<10 trails), medium (10-20 trails), and high gliding (>20 trails).
In the DMSO control, more than 90% of sporozoites deposited trails, with >60% classified as medium and high gliding (>10 trails). […] At lower concentrations of compounds, the sporozoites did start to recover their gliding ability. However, for compound 4 at the lowest concentration of compound, less than 60% of the sporozoites were gliding and when they did glide, 90% of those sporozoites were depositing less than 10 trails and upon inspection of multiple fields, they typically could only complete one circular trail. For compound 18, less than 25% of sporozoites were able to glide at the lowest compound concentration and 75% of those sporozoites were low gliding, with less than 10 trails deposited; however, these low gliding parasites typically deposited more than 1 trail, unlike those from compound 4. […] However, from this single assay, it is not possible to assess whether the compounds were directly affecting the motor through the proposed TRAP-Aldolase interaction, by affecting an energy production step necessary to generate ATP for motor power, or by cytocidal effect.

sporozoites [5] = test: sporozoite viability, propidium iodide exclusion assay; format: cell-based; settings: 10 min at 18° C. then 15 min at 37° C., DMSO 85%, read-out: sporozoite viability (PI exclusion)
Experimental: FIG. 12A-FIG. 12C is a series of bar charts that show results of sporozoite viability assays. […] The total number of sporozoites was determined from phase images and the number of non-viable sporozoites from the count of red fluorescing sporozoites.
To determine if the compounds' mode of action was by causing cell death, viability assays to look at compound effects were performed. In a first test of viability, a propidium iodide exclusion assay was used (FIG. 12A). The total number of sporozoites was determined from in phase imaging and the number of non-viable sporozoites from the count of red fluorescing sporozoites. […] 250 μM of compound 4 reduced viability to 79% while compound 18 indicated a protective effect with 93% viability.

[6] = biological target: P. falciparum aldolase in the presence of TRAP (Plasmodium falciparum, UniProt Q7KQL9); test: aldolase enzyme activity assay, P. falciparum aldolase in the presence of TRAP; format: biochemical; settings: in the presence of TRAP and the compounds
Sequence of P. falciparum aldolase in the presence of TRAP (Q7KQL9 whole entry): as the sequence (Q7KQL9 whole entry) above
Description: (§1) FIGS. 16A-16D depict an aldolase enzyme activity assay. (A) Cartoon and surface representation of aldolase with TRAPpep bound (magenta, sticks) (PDB entry 2pc4), overlapping the F16BP (green, sticks) substrate binding site (PDB entry 4ald), via PyMOL. (B) Coupled enzyme assay to measure aldolase activity via NADH consumption as measured at 340 nm. (C) Concentration-dependent effect of compounds on PfAldolase inhibition in the presence of PbTRAP peptide. Activity is normalized to the PbTRAP control, which reduces Vmax to 50% of enzyme without PbTRAP. (D) PfAldolase activity in the presence of compounds to determine direct inhibition of enzyme by the compounds. Activity is normalized to the PfAldolase control measured Vmax. Standard error means plotted for activity assays and standard deviation for SPR data.
(§2) Dose-Dependent Enzymatic Inhibition of Compounds on P. falciparum Aldolase and Rabbit Aldolase as a Surrogate for Human Aldolase.

Plasmodium parasite = test: cytocidal activity (assay not specified); format: cell-based; settings: 60 μM concentration
Description: As described herein, inferring from sequence identity between TRAP and CTRP, the Aldolase-CTRP complex is inhibited during the mosquito stage.

rabbit aldolase = biological target: T1, rabbit aldolase (Oryctolagus cuniculus, UniProt P00883); test: aldolase enzyme activity assay, rabbit aldolase; format: biochemical; settings: surrogate for human aldolase
T1 sequence (P00883 1-364): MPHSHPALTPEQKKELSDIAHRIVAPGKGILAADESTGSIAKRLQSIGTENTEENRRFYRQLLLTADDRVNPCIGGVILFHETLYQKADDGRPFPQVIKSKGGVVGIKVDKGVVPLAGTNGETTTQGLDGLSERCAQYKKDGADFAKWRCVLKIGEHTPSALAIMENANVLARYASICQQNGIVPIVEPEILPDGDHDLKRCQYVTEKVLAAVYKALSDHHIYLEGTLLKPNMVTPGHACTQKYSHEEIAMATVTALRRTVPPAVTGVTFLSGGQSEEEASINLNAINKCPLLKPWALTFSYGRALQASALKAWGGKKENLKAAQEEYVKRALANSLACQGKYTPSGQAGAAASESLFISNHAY
Description: as §1, §2

SMILES	EC90 [1]	reversibility of gliding effect after washout (sporozoites [2]; 31.25 μM)	reversibility of gliding effect after washout (sporozoites [2]; 62.5 μM)	reversibility of gliding effect after washout (sporozoites [2]; 15.625 and 7.8125 μM, 20 min incubation before wash)	binding interaction of TRAP with aldolase in presence of compound [3]	effect on viability in LIVE/DEAD assay (sporozoites [4])	effect on gliding motility (comparison among the five compounds) (P. berghei sporozoites)	share of gliding sporozoites that were low gliding (less than 10 trails) (P. berghei sporozoites)	sporozoites gliding (P. berghei sporozoites)	viability at 250 µM (sporozoites [5])	inhibition of P. falciparum aldolase [6]	reversibility of gliding effect after washout (sporozoites [2]; any concentration)	number of high gliding parasites after washout, relative to DMSO control (sporozoites [2]; less than 8 μM)	total number of parasites gliding after washout (sporozoites [2]; less than 8 μM)	cytocidal activity (Plasmodium parasite)	enzyme inhibition on rabbit aldolase (rabbit aldolase)
CCCCn1c(N)c(C(=O)NCc2ccccc2)c2nc3ccccc3nc21 [Compound 18, 2-amino-N-benzyl-1-butyl-1H-pyrrolo[2,3-b]quinoxaline-3-carboxamide]	~30 µM	the number of high-gliding parasites increased	little reversibility	completely reversible	Increased binding interaction	relatively mild	greatest effect	75%	less than 25%	93%						
Brc1ccc(Nc2nc3ccccc3nc2Nc2ccc(Br)cc2)cc1 [Compound 4, N,N′-bis(4-bromophenyl)-2,3-quinoxalinediamine]	~125 µM				Increased binding interaction	greater decrease in viability	greatest effect	90%	less than 60%	79%	inhibited	no complete reversibility	10%	comparable to wild type	cytocidal activity	no enzyme inhibition
